Data set [1] deals with T1, MT1-MMP hemopexin domain (Mus musculus, UniProt P53690).
T1 construct: MT1-MMP hemopexin domain derived from other species
As to the kind of experiment: FP competition, species cross-reactivity (mouse). In kind it is binding. The conditions noted are these: Table 13. The text has this: (§1) Here, a pre-formed complex of PEX with the fluorescent PEX-binding tracer is titrated with free, non-fluoresceinated bicyclic peptide. Since all 17-69-based peptides are expected to bind at the same site, the titrant will displace the fluorescent tracer from PEX. Dissociation of the complex can be measured quantitatively, and the Kd of the competitor (titrant) to the target protein determined. The advantage of the competition method is that the affinities of non-fluoresceinated bicyclic peptides can be determined accurately and rapidly.
(§2) Subsequently, the non-fluorescent competitor bicyclic peptide (usually just the bicycle core sequence) is titrated, such that it displaces the fluorescent tracer from the target protein. The displacement of the tracer is measured and associated with a drop in fluorescence polarisation. The drop in fluorescence polarisation is proportional to the fraction of target protein bound with the non-fluorescent titrant, and thus is a measure of the affinity of titrant to target protein.
(§3) The raw data is fit to the analytical solution of the cubic equation that describes the equilibria between fluorescent tracer, titrant, and binding protein. The fit requires the value of the affinity of fluorescent tracer to the target protein, which can be determined separately by direct binding FP experiments (see previous section). […]

Data set [2] is described as follows: Plasma stability, quantitative LC-MS (Method #2). Type of data set: in vitro ADME, mouse. Conditions: mouse, quantitative LC-MS, incubation up to 24 hrs, 4 μM BDC, read-out: t1/2 (hrs) (mouse plasma) (converted). Here is the method: To obtain plasma stability of bicyclic peptides quantitatively, peptide stock solutions (200 μM in DMSO) were mixed with plasma (human or mouse), such that final concentrations were 10 μM. 40 μL samples were taken periodically up to 8 hrs and frozen at −80° C. Prior to LC-MS analysis, samples were defrosted, and mixed with 3 volumes (here, 120 μL) of 1:1 acetonitrile/MeOH water. The milky suspensions were centrifuged for 30 min at 13000 rpm, and peptide-containing supernatants were quantitated for doubly/triply charged species and MS/MS fragments thereof using a Waters Xevo TQ-D instrument, while using a plasma extracted standard curve of the same peptides as a reference. The half-life of degradation in plasma was used to assess the comparative stability of the molecules.

The target of data set [3] is MT1-MMP hemopexin domain. Put plainly: FP competition, species cross-reactivity (dog). Type of data set: binding. The conditions noted are these: Table 13.
Description: as §1, §2, §3

Data set [4] can be described thus: Plasma stability, quantitative LC-MS (Method #2). Type of data set: in vitro ADME, human. The conditions noted are these: quantitative LC-MS, incubation up to 24 hrs, 4 μM BDC; for half-life at 4 μM: human, read-out: t1/2 (hrs) (human plasma) (converted). Here is the method: […] […] Prior to LC-MS analysis, samples were defrosted, and mixed with 3 volumes (here, 120 μL) of 1:1 acetonitrile/MeOH water. The milky suspensions were centrifuged for 30 min at 13000 rpm, and peptide-containing supernatants were quantitated for doubly/triply charged species and MS/MS fragments thereof using a Waters Xevo TQ-D instrument, while using a plasma extracted standard curve of the same peptides as a reference. The half-life of degradation in plasma was used to assess the comparative stability of the molecules.

The nature of data set [5]: Plasma stability, quantitative LC-MS. Type of data set: in vitro ADME. The conditions noted are these: rat, incubation up to 24 hrs, 4 μM BDC, read-out: t1/2 (hrs) (rat plasma) (converted). Here is the method:
(§4) The four BDCs were assessed for several in vitro parameters such as retention of potency to the human MT1-MMP hemopexin domain, stability in ex vivo mouse, rat and human plasma, and stability to reducing agents such as dithiothreitol.

The target in another data set is T2, MMP-1 (Homo sapiens, UniProt P03956).
T2 sequence (P03956 100-469): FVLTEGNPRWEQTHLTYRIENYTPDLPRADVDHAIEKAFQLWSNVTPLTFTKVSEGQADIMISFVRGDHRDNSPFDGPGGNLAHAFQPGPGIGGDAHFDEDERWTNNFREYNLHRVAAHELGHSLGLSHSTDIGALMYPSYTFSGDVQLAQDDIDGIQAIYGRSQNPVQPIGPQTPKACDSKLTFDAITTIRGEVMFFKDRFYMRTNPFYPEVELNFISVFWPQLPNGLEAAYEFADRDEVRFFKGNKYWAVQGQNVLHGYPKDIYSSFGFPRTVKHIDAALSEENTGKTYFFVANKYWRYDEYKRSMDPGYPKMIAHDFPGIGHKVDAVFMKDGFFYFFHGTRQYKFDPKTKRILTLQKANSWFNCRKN
As to the kind of experiment: FP selectivity against related metalloproteinases. In kind it is binding. The conditions noted are these: Table 14. Here is the method: (§5) The N-terminally fluoresceinated derivative of 17-69-07-N241 (termed 17-69-07-N258, of the sequence: Fluorescein-(bAla)-Sar10-A-(17-69-07) D-Ala1 1Nal4 D-Ala5 tBuGly11) was tested against related human metalloproteinases.

In the next data set the target is T3, MMP-2 (Homo sapiens, UniProt P08253).
T3 sequence (P08253 110-660): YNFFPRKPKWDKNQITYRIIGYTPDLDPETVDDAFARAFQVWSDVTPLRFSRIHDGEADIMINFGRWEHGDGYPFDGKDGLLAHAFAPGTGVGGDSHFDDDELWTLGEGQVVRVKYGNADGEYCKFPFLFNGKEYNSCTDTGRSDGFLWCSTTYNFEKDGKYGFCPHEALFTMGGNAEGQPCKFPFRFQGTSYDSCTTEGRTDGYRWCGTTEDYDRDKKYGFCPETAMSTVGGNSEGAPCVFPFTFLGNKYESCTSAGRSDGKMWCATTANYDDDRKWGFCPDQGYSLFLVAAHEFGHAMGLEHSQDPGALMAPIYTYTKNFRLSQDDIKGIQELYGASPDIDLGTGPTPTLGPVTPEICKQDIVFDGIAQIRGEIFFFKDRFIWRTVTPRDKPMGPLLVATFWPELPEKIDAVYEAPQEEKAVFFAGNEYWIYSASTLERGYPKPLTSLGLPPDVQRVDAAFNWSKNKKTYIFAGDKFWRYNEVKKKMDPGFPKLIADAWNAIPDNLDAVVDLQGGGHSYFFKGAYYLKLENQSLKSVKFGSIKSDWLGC
As to the kind of experiment: FP selectivity against related metalloproteinases. In kind it is binding. The conditions noted are these: Table 14. Here is the method:
as §5

Another data set has as its target MMP-16 (Homo sapiens, UniProt P51512). Put plainly: FP selectivity against related metalloproteinases. The conditions noted are these: Table 14. Type of data set: binding. Here is the method:
as §5

A further data set has as its target MMP-15 (Homo sapiens, UniProt P51511). Put plainly: FP selectivity against related metalloproteinases. Type of data set: binding. The conditions noted are these: Table 14. Here is the method:
as §5

The conditions of data set [6]: Kellogg et al (2011), cited from earlier work.
Data set [7] deals with human lung squamous cell carcinoma line EBC-1. As to the kind of experiment: Efficacy in EBC-1 xenograft mice. Type of data set: in vivo, mouse. Here is the method: In vivo efficacy of BT17BDC-17, BT17BDC-18, BT17BDC-19 and BT17BDC-20 All BDCs containing the stabilised bicycle core sequence were tested for their efficacies in in vivo mouse xenograft models, using the human lung squamous cell carcinoma line EBC-1.
The area under the curve (AUC) of tumour volume over time and BDC was taken and plotted against the corresponding dose group (FIG. 13).

A short description of data set [8]: Stability to reducing agent dithiothreitol (DTT). In kind it is physicochemical. The conditions noted are these: Bicycle Drug Conjugates, quantitative LC-MS. Here is the method:
as §4

Marks after values point to notes of the source that are not given here. Numbered stars: 1 amine (or outer) side, 2 acyl side, 3 side chain; on linkers, the order of the positions; unused ones are H or OH. Bridge positions count the residues as written; N and C are the ends. Square brackets hold non-standard residues; d marks the D form. Peptide text beside a SMILES is read from it. * marks the point of attachment. X1 = COc1cc2cc(c1Cl)N(C)C(=O)C[C@H](OC(=O)[C@H](C)N(C)C(=O)CCC(C)(C)SSCCCC(=O)*)[C@]1(C)O[C@H]1[C@H](C)[C@@H]1C[C@@](O)(NC(=O)O1)[C@H](OC)/C=C/C=C(\C)C2; 5FAM = O=C1OC2(c3ccc(O)cc3Oc3cc(O)ccc32)c2ccc(C(=O)*)cc21; 1Nal = N[C@@H](Cc1cccc2ccccc12)C(=O)O; TBMB = c1c(C[*:1])cc(C[*:3])cc1C[*:2]; Tle = CC(C)(C)[C@H](N)C(=O)O; βAla = NCCC(=O)O; Sar = CNCC(=O)O A value given as a limit tells only on which side of the number the result lay.

Chain of MMP-16 (P51512 120-607): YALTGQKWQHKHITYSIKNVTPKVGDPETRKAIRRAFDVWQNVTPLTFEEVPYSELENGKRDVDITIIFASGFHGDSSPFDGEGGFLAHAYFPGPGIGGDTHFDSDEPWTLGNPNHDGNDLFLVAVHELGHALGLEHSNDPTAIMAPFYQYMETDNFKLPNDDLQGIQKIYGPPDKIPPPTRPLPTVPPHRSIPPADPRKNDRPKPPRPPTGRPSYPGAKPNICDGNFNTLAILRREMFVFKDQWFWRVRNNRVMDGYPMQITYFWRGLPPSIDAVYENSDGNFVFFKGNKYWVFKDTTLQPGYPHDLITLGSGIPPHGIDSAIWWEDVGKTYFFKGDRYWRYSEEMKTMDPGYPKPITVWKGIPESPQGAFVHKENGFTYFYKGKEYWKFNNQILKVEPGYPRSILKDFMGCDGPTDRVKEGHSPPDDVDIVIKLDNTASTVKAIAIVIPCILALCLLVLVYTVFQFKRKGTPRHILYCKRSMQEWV
Chain of MMP-15 (P51511 132-669): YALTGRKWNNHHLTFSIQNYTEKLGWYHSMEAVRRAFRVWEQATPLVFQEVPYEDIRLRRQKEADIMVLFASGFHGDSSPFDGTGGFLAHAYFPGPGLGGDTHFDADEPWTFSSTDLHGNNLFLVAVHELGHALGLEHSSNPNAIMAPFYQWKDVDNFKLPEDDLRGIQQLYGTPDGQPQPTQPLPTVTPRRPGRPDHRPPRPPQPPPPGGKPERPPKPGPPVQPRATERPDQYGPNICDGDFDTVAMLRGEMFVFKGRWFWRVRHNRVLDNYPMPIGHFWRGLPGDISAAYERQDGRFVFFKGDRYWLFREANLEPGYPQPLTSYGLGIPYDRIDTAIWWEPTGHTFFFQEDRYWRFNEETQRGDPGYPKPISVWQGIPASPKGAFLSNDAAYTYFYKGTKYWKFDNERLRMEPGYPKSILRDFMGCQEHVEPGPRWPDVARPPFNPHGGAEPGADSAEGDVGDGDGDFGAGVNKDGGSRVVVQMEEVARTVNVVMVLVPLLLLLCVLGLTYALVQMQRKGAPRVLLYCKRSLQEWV

With `C[C@H](NC(=O)CN(C)C(=O)CN(C)C(=O)CN(C)C(=O)CN(C)C(=O)CN(C)C(=O)CN(C)C(=O)CN(C)C(=O)CN(C)C(=O)CN(C)C(=O)CN(C)C(=O)CCN)C(=O)N[C@H]1CSCc2cc3cc(c2)CSC[C@H](NC(=O)[C@@H](C)NC(=O)[C@H](Cc2cccc4ccccc24)NC(=O)[C@H](CCC(=O)O)NC(=O)[C@H](CC(N)=O)NC(=O)[C@@H](C)NC1=O)C(=O)N[C@@H](CCC(=O)O)C(=O)N[C@@H](CC(=O)O)C(=O)N[C@@H](Cc1ccccc1)C(=O)N[C@@H](Cc1ccc(O)cc1)C(=O)N[C@@H](CC(=O)O)C(=O)N[C@@H](C(C)(C)C)C(=O)N[C@H](C(N)=O)CSC3` [17-69-07-N241, bAla-Sar10-A-(17-69-07) D-Ala1 1Nal4 D-Ala5 tBuGly11] (H-[βAla][Sar][Sar][Sar][Sar][Sar][Sar][Sar][Sar][Sar][Sar]AC[dA]NE[1Nal][dA]CEDFYD[Tle]C-NH2; linker 13-19-26 via TBMB; C-terminus assumed), the Kd on MT1-MMP hemopexin domain [1] came out at 0.00063 µM; on MT1-MMP hemopexin domain [3] it was 0.0014 µM. Besides, the half-life at 4 μM in [2] (mouse plasma), in data set [4] (human plasma) and in [5] (rat plasma (ex vivo)) was above 36 h throughout.
Turning to `C[C@H](NC(=O)CN(C)C(=O)CN(C)C(=O)CN(C)C(=O)CN(C)C(=O)CN(C)C(=O)CN(C)C(=O)CN(C)C(=O)CN(C)C(=O)CN(C)C(=O)CN(C)C(=O)CCNC(=O)c1ccc2c(c1)C(=O)OC21c2ccc(O)cc2Oc2cc(O)ccc21)C(=O)N[C@H]1CSCc2cc3cc(c2)CSC[C@H](NC(=O)[C@@H](C)NC(=O)[C@H](Cc2cccc4ccccc24)NC(=O)[C@H](CCC(=O)O)NC(=O)[C@H](CC(N)=O)NC(=O)[C@@H](C)NC1=O)C(=O)N[C@@H](CCC(=O)O)C(=O)N[C@@H](CC(=O)O)C(=O)N[C@@H](Cc1ccccc1)C(=O)N[C@@H](Cc1ccc(O)cc1)C(=O)N[C@@H](CC(=O)O)C(=O)N[C@@H](C(C)(C)C)C(=O)N[C@H](C(N)=O)CSC3` [17-69-07-N258, Fluorescein-(bAla)-Sar10-A-(17-69-07) D-Ala1 1Nal4 D-Ala5 tBuGly11] ({5FAM-βAla}-[Sar][Sar][Sar][Sar][Sar][Sar][Sar][Sar][Sar][Sar]AC[dA]NE[1Nal][dA]CEDFYD[Tle]C-NH2; linker 12-18-25 via TBMB), the Kd at MMP-1, on MMP-2, on MMP-16 and on MMP-15 was above 1000 nM each time.
Consider `COc1cc2cc(c1Cl)N(C)C(=O)C[C@H](OC(=O)[C@H](C)N(C)C(=O)CCC(C)(C)SSCCCC(=O)NCCC(=O)N(C)CC(=O)N(C)CC(=O)N(C)CC(=O)N(C)CC(=O)N(C)CC(=O)N(C)CC(=O)N(C)CC(=O)N(C)CC(=O)N(C)CC(=O)N(C)CC(=O)N[C@@H](C)C(=O)N[C@H]1CSCc3cc4cc(c3)CSC[C@H](NC(=O)[C@@H](C)NC(=O)[C@H](Cc3cccc5ccccc35)NC(=O)[C@H](CCC(=O)O)NC(=O)[C@H](CC(N)=O)NC(=O)[C@@H](C)NC1=O)C(=O)N[C@@H](CCC(=O)O)C(=O)N[C@@H](CC(=O)O)C(=O)N[C@@H](Cc1ccccc1)C(=O)N[C@@H](Cc1ccc(O)cc1)C(=O)N[C@@H](CC(=O)O)C(=O)N[C@@H](C(C)(C)C)C(=O)N[C@H](C(N)=O)CSC4)[C@]1(C)O[C@H]1[C@H](C)[C@@H]1C[C@@](O)(NC(=O)O1)[C@H](OC)/C=C/C=C(\C)C2` [BT17BDC-19] ({X1-βAla}-[Sar][Sar][Sar][Sar][Sar][Sar][Sar][Sar][Sar][Sar]AC[dA]NE[1Nal][dA]CEDFYD[Tle]C-NH2; linker 12-18-25 via TBMB), for which the “fold reduction in sensitivity to a reducing agent such as dithiothreitol” value in data set [6] (in the antibody drug conjugate context, compared to the non-hindered disulphide) is recorded as 14 fold. In addition, the “Relative Stability to DTT (ADC)” value in data set [6] (values relate to antibody drug conjugates containing the same disulphide linker) is recorded as 14. For the same molecule, the half-life at 4 μM in data set [2] (plasma) is above 36 h; in data set [4] (plasma), above 14 h; in data set [5] (plasma), above 36 h. The “efficacy in EBC-1 xenograft” value in data set [7] (EBC-1 xenograft) is listed as “efficacious”. The “tolerability / body weight” value in [7] (EBC-1 xenograft) is “well tolerated at efficacious doses”. The “ED50, effective dose to achieve 50% tumour AUC reduction” value in [7] (mouse bearing EBC-1 tumours, ± 95% confidence limit) is reported as 3.1 ± 1.6^b mg/kg. In data set [8], the “Relative Stability to DTT (BDC)” value was 30. Besides, the “t1/2 (hrs) (human plasma)” value in [4] stood at 23.5 ± 4.1 h.

Values taken from patent publication US11672868B2, “Bicyclic peptide ligands specific for MT1-MMP” (priority 2014, dated 2023).
